Data set [1] in a line: Cytotoxicity against human SAE cells at 1 to 10 ug/ml. Format: cell-based.
Data set [2] deals with SAE. In words: Inhibition of MMP1 mRNA expression in human SAE cells at 1 to 10 ug/ml after 24 hrs by quantitative RT-PCR analysis. Format: functional, cell-based.
A short description of data set [3]: Inhibition of CPE-induced MMP1 mRNA expression in human SAE cells after 24 hrs by quantitative RT-PCR analysis relative to control. Format: functional.
In data set [4] the test system is SAE. Briefly: Inhibition of CPE-induced MMP1 mRNA expression in human SAE cells after 24 hrs by quantitative RT-PCR analysis. Format: functional, cell-based.

SMILES strings stand for the structures. Activity calls are given as the source filed them. The calls are words filed in the database; no cut-off is given here.

`O=c1oc2c(O)c(O)cc3c(=O)oc4c(O)c(O)cc1c4c23` [ELLAGIC ACID]: the Activity result in data set [1] was “Non-toxic”. Further, the inhibition result in the data set on SAE [2] is “Active”. Further, in data set [3], the “fold change (FC)” value came out at 6. In addition, in the data set with SAE [4], the inhibition entry is “Dose-dependent effect”.

The values above are taken from ChEMBL document CHEMBL2046420, “Edible Myrciaria vexator fruits: bioactive phenolics for potential COPD therapy” (Bioorg Med Chem, 2012).
